Source: BindingDB's records for doi:10.1016/j.bmcl.2019.04.027 (Gilead Sciences, 2019)

Tests used:
[1] = Inhibition of NS5A in HCV genotype 1a H77 infected in human HuH7 replicon cells assessed as reduction in viral replication after 3 days by luciferase reporter gene assay
[2] = Inhibition of NS5A in HCV genotype 1b Con1 infected in human HuH7 replicon cells assessed as reduction in viral replication after 3 days by luciferase reporter gene assay
[3] = Inhibition of NS5A in HCV genotype 2a JFH1 infected in human HuH7 replicon cells assessed as reduction in viral replication after 3 days by luciferase reporter gene assay
[4] = Inhibition of NS5A L31M mutant in HCV genotype 2a J6 (M31) infected in human HuH7 replicon cells assessed as reduction in viral replication after 3 days by luciferase reporter gene assay
[5] = Inhibition of NS5A in HCV genotype 3a S52 infected in human HuH7 transient chimeric replicon cells assessed as reduction in viral replication after 3 days by luciferase reporter gene assay
[6] = Inhibition of NS5A in HCV genotype 4a ED43 infected in human HuH7 transient chimeric replicon cells assessed as reduction in viral replication after 3 days by luciferase reporter gene assay
[7] = Inhibition of NS5A L31M mutant in patient derived HCV genotype 2b MD2b-1 infected in human HuH7 replicon cells assessed as reduction in viral replication after 3 days by luciferase reporter gene assay
[8] = Inhibition of NS5A in HCV genotype 2a JFH1 (L31) infected in human HuH7 replicon cells assessed as reduction in viral replication after 3 days by luciferase reporter gene assay
[9] = Inhibition of NS5A L31M mutant in HCV genotype 2a JFH1 infected in human HuH7 replicon cells assessed as reduction in viral replication after 3 days by luciferase reporter gene assay
[10] = Inhibition of NS5A in HCV genotype 4a ED43 infected in human HuH7 replicon cells assessed as reduction in viral replication after 3 days by luciferase reporter gene assay
[11] = Inhibition of NS5A in HCV genotype 2b MD2b-1 infected in human HuH7 replicon cells assessed as reduction in viral replication after 3 days by luciferase reporter gene assay

Row | Compound | EC50 [1] | EC50 [2] | EC50 [3] | EC50 [4] | EC50 [5] | EC50 [6] | EC50 [7] | EC50 [8] | EC50 [9] | EC50 [10] | EC50 [11]
1 | COC(=O)N[C@H](C(=O)N1CCC[C@H]1c1nc2ccc3cc4c(cc3c2[nH]1)OCc1cc(-c2cnc([C@@H]3CCCN3C(=O)[C@H](NC(=O)OC)c3ccccc3)[nH]2)ccc1-4)C(C)C | 0.035 nM | 0.033 nM | 0.006 nM | 0.073 nM | 0.006 nM | 0.011 nM | 0.016 nM | – | – | – | –
2 | COC(=O)N[C@H](C(=O)N1CCC[C@H]1c1ncc(-c2cc3c4c(c2)OCc2cc(-c5cnc([C@@H]6CCCN6C(=O)[C@@H](NC(=O)OC)C6CCC6)[nH]5)cc(c2-4)OC3)[nH]1)C1CCC1 | 0.053 nM | 0.02 nM | – | – | – | – | – | 0.02 nM | 31.3 nM | – | –
3 | COC(=O)N[C@H](C(=O)N1CCC[C@H]1c1ncc(-c2cc3c4c(c2)OCc2cc(-c5cnc([C@@H]6CCCN6C(=O)[C@@H](NC(=O)OC)C6CCOCC6)[nH]5)cc(c2-4)OC3)[nH]1)C1CCOCC1 | 0.38 nM | 0.8 nM | – | 0.33 nM | – | – | 0.6 nM | 0.074 nM | – | – | –
4 | COC(=O)N[C@H](C(=O)N1CCC[C@H]1c1ncc(-c2cc3c4c(c2)COc2cc(-c5cnc([C@@H]6CCCN6C(=O)[C@@H](NC(=O)OC)C(C)C)[nH]5)cc(c2-4)CC3)[nH]1)C(C)C | 0.065 nM | 0.028 nM | – | 23.7 nM | – | – | – | 0.016 nM | – | – | –
5 | COC(=O)N[C@H](C(=O)N1CCC[C@H]1c1ncc(-c2cc3c4c(c2)OCc2cc(-c5cnc([C@@H]6CCCN6C(=O)[C@@H](NC(=O)OC)C6CCOCC6)[nH]5)cc(c2-4)OC3)[nH]1)C(C)C | 0.185 nM | 0.172 nM | – | 1.43 nM | – | – | – | 0.014 nM | 1.33 nM | – | –
6 | COC(=O)N[C@@H](C(=O)N1CCC[C@H]1c1ncc(-c2cc3c4c(c2)OCc2cc(-c5cnc([C@@H]6CCCN6C(=O)[C@H](NC(=O)OC)c6ccccc6)[nH]5)cc(c2-4)OC3)[nH]1)c1ccccc1 | 0.093 nM | 0.048 nM | – | 0.24 nM | – | – | 0.022 nM | 0.007 nM | 0.145 nM | – | –
7 | COC(=O)N[C@H](C(=O)N1CCC[C@H]1c1ncc(-c2ccc3c(c2)COc2cc4c(ccc5nc([C@@H]6CCCN6C(=O)[C@@H](NC(=O)OC)C(C)C)[nH]c54)cc2-3)[nH]1)C(C)C | 0.016 nM | 0.017 nM | – | 1.16 nM | 0.004 nM | 0.008 nM | 0.162 nM | 0.004 nM | – | – | –
8 | COC(=O)N[C@H](C(=O)N1CCC[C@H]1c1ncc(-c2cc3c4c(c2)COc2cc(-c5cnc([C@@H]6CCCN6C(=O)[C@@H](NC(=O)OC)C(C)C)[nH]5)cc(c2-4)OC3)[nH]1)C(C)C | 0.087 nM | 0.021 nM | – | – | – | – | – | 0.019 nM | 9.85 nM | – | –
9 | COC(=O)NC(C(=O)N1CCC[C@H]1c1ncc(-c2cc3c4c(c2)OCc2cc(-c5cnc([C@@H]6CCCN6C(=O)[C@@H](NC(=O)OC)C(C)C)[nH]5)cc(c2-4)OC3)[nH]1)c1cccnc1 (stereo not given in full) | 0.75 nM | 0.58 nM | – | 1.8 nM | – | – | 1.21 nM | 0.038 nM | – | – | –
10 | COC(=O)N[C@H](C(=O)N1CCC[C@H]1c1ncc(-c2cc3c4c(c2)OCc2cc(-c5cnc([C@@H]6CCCN6C(=O)[C@H](NC(=O)OC)c6ccccc6)[nH]5)cc(c2-4)OC3)[nH]1)C1CCOCC1 | 0.32 nM | 0.315 nM | – | 0.28 nM | – | – | 0.057 nM | 0.022 nM | 0.32 nM | – | –
11 | COC(=O)N[C@H](C(=O)N1CCC[C@H]1c1ncc(-c2ccc3c(c2)COc2cc4c(ccc5nc([C@@H]6CCCN6C(=O)[C@H](NC(=O)OC)c6ccccc6)[nH]c54)cc2-3)[nH]1)C(C)C | 0.022 nM | 0.021 nM | 0.004 nM | 0.134 nM | 0.005 nM | 0.008 nM | 0.012 nM | – | – | – | –
12 | COC(=O)N[C@H](C(=O)N1C[C@@H](C)C[C@H]1c1nc2ccc3cc4c(cc3c2[nH]1)OCc1cc(-c2cnc([C@@H]3C[C@H](C)CN3C(=O)[C@H](NC(=O)OC)c3ccccc3)[nH]2)ccc1-4)C(C)C | 0.033 nM | 0.03 nM | 0.018 nM | 0.045 nM | 0.05 nM | – | – | – | – | 0.063 nM | 0.027 nM
13 | COC(=O)N[C@H](C(=O)N1CCC[C@H]1c1ncc(-c2ccc3c(c2)COc2c-3ccc3c2ccc2nc([C@@H]4CCCN4C(=O)[C@@H](NC(=O)OC)C(C)C)[nH]c23)[nH]1)C(C)C | 0.041 nM | 0.017 nM | – | 20.9 nM | 0.012 nM | 0.13 nM | 32.3 nM | 0.016 nM | – | – | –
14 | COC(=O)N[C@@H](C(=O)N1C[C@@H](C)C[C@H]1c1ncc(-c2cc3c4c(c2)OCc2cc(-c5cnc([C@@H]6C[C@H](C)CN6C(=O)[C@H](NC(=O)OC)c6ccccc6)[nH]5)cc(c2-4)OC3)[nH]1)c1ccccc1 | 0.031 nM | 0.02 nM | 0.005 nM | 0.058 nM | 0.006 nM | 0.013 nM | 0.026 nM | – | – | – | –
15 | COC(=O)N[C@@H](C(=O)N1[C@@H](C)CC[C@H]1c1ncc(-c2cc3c4c(c2)OCc2cc(-c5cnc([C@@H]6CC[C@H](C)N6C(=O)[C@H](NC(=O)OC)c6ccccc6)[nH]5)cc(c2-4)OC3)[nH]1)c1ccccc1 | 0.15 nM | 0.02 nM | 0.008 nM | 1.84 nM | 0.004 nM | 0.015 nM | 0.094 nM | – | – | – | –
16 | COC(=O)N[C@H](C(=O)N1[C@@H](C)CC[C@H]1c1nc2ccc3cc4c(cc3c2[nH]1)OCc1cc(-c2cnc([C@@H]3C[C@H](C)CN3C(=O)[C@H](NC(=O)OC)c3ccccc3)[nH]2)ccc1-4)C(C)C | 0.008 nM | 0.005 nM | 0.004 nM | 0.053 nM | 0.02 nM | – | – | – | – | – | 0.015 nM
17 | COC(=O)N[C@H](C(=O)N1CCC[C@H]1c1ncc(-c2ccc3c4ccc(-c5cnc([C@@H]6CCCN6C(=O)[C@@H](NC(=O)OC)C(C)C)[nH]5)cc4c4ccccc4c3c2)[nH]1)C(C)C | 0.092 nM | 0.005 nM | – | – | – | – | – | 0.02 nM | 6.79 nM | – | –
18 | COC(=O)N[C@H](C(=O)N1CCC[C@H]1c1ncc(-c2cc3ccc4cc(-c5cnc([C@@H]6CCCN6C(=O)[C@@H](NC(=O)OC)C(C)C)[nH]5)cc5c(=O)c(c2)c3c45)[nH]1)C(C)C | 0.22 nM | 0.013 nM | – | – | – | – | – | 0.073 nM | – | – | –
19 | COC(=O)N[C@H](C(=O)N1CCC[C@H]1c1ncc(-c2cc3c4c(c2)CCc2cc(-c5cnc([C@@H]6CCCN6C(=O)[C@@H](NC(=O)OC)C(C)C)[nH]5)cc(c2-4)CC3)[nH]1)C(C)C | 0.156 nM | 0.021 nM | – | – | – | – | – | 0.131 nM | 13.3 nM | – | –
20 | COC(=O)N[C@H](C(=O)N1CCC[C@H]1c1ncc(-c2cc3c4c(ccc5cc(-c6cnc([C@@H]7CCCN7C(=O)[C@@H](NC(=O)OC)C(C)C)[nH]6)cc(c54)OC3)c2)[nH]1)C(C)C | 0.063 nM | 0.022 nM | – | 19.7 nM | – | – | 10.2 nM | 0.014 nM | – | – | –
21 | CC[C@H](C)[C@H](NC(=O)OC)C(=O)N1CCC[C@H]1c1ncc(-c2cc3c4c(c2)OCc2cc(-c5cnc([C@@H]6CCCN6C(=O)[C@@H](NC(=O)OC)[C@@H](C)CC)[nH]5)cc(c2-4)OC3)[nH]1 | 0.031 nM | 0.019 nM | – | – | – | – | 1.85 nM | 0.009 nM | 12.1 nM | – | –
22 | COC(=O)N[C@H](C(=O)N1CCC[C@H]1c1ncc(-c2cc3c4c(c2)OCc2cc(-c5cnc([C@@H]6CCCN6C(=O)[C@@H](NC(=O)OC)C6CCCC6)[nH]5)cc(c2-4)OC3)[nH]1)C1CCCC1 | 0.055 nM | 0.022 nM | – | – | – | – | – | 0.022 nM | > 44 nM | – | –
23 | COC(=O)N[C@H](C(=O)N1CCC[C@H]1c1ncc(-c2cc3c4c(c2)OCc2cc(-c5cnc([C@@H]6CCCN6C(=O)[C@@H](NC(=O)OC)[C@@H](C)OC)[nH]5)cc(c2-4)OC3)[nH]1)C(C)C | 0.087 nM | 0.079 nM | – | – | – | – | – | 0.01 nM | 3.67 nM | – | –
24 | COC(=O)N[C@H](C(=O)N1CCC[C@H]1c1ncc(-c2ccc3c4ccc(-c5cnc([C@@H]6CCCN6C(=O)[C@@H](NC(=O)OC)C(C)C)[nH]5)cc4c4nccnc4c3c2)[nH]1)C(C)C | 0.528 nM | 0.018 nM | – | – | – | – | – | 0.223 nM | – | – | –
25 | COC(=O)N[C@H](C(=O)N1CCC[C@H]1c1ncc(-c2cc3c4c(c2)OCc2cc(-c5cnc([C@@H]6CCCN6C(=O)[C@H](NC(=O)OC)c6ccccc6)[nH]5)cc(c2-4)OC3)[nH]1)C(C)C | 0.05 nM | 0.031 nM | – | 1.82 nM | – | – | 0.076 nM | 0.004 nM | 0.6 nM | – | –
26 | COC(=O)N[C@H](C(=O)N1CCC[C@H]1c1ncc(-c2ccc3c4ccc(-c5cnc([C@@H]6CCCN6C(=O)[C@@H](NC(=O)OC)C(C)C)[nH]5)cc4c4nc5ccccc5nc4c3c2)[nH]1)C(C)C | 5.99 nM | 0.01 nM | – | – | – | – | – | 1.47 nM | – | – | –
